Reference: patent US20170000133A1, “BENZOXABOROLE FUNGICIDES” (SYNGENTA PARTICIPATIONS AG, priority 2013, published 2017)

tested on: Glomerella lagenarium (Colletotrichum lagenarium); assay: Glomerella lagenarium (Colletotrichum lagenarium) / liquid culture (anthracnose); format: cell-based; conditions: Colletotrichum orbiculare, PDB potato dextrose broth, 24° C., 3-4 days after application, read-out: disease control (inhibition of growth measured photometrically)
How it was run: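 Compound was applied at 200 ppm from DMSO solution, then potato dextrose broth carrying cryostored fungal spores was added. Growth inhibition was measured by photometry after 3-4 days of incubation at 24° C.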

Structure (SMILES)	inhibition at 200 ppm [%]
O=C(OCc1ccco1)c1ccc2c(c1)B(O)OC2 [Compound 336]	≥ 80
COc1ccc(OCCOC(=O)c2ccc3c(c2)B(O)OC3)cc1 [Compound 344]	≥ 80
C#CCOC(=O)c1cc2c(cc1F)COB2O [Compound 381]	≥ 80

tested on: Mycosphaerella arachidis (Cercospora arachidicola); assay: Mycosphaerella arachidis (Cercospora arachidicola) / liquid culture (early leaf spot); format: cell-based; conditions: PDB potato dextrose broth, 24° C., 4-5 days after application, read-out: disease control (inhibition of growth determined photometrically)
How it was run: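 Test compound, applied at 200 ppm from DMSO solution, was combined with spore-containing potato dextrose broth. Photometric growth inhibition was scored after 4-5 days at 24° C.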

Structure (SMILES)	inhibition at 200 ppm [%]
C=CCCOC(=O)c1ccc2c(c1)B(O)OC2 [Compound 329]	≥ 80
O=C(OC1CCC1)c1ccc2c(c1)B(O)OC2 [Compound 332]	≥ 80
O=C(OCc1ccco1)c1ccc2c(c1)B(O)OC2 [Compound 336]	≥ 80
COc1ccc(OCCOC(=O)c2ccc3c(c2)B(O)OC3)cc1 [Compound 344]	≥ 80
O=C(OCCOc1ccc(Cl)cc1)c1ccc2c(c1)B(O)OC2 [Compound 352]	≥ 80
C[Si](C)(C)C#CCOC(=O)c1cc2c(cc1F)COB2O [Compound 430]	≥ 80
CC(=O)C(C)OC(=O)c1cc2c(cc1Cl)COB2O (centres unmarked) [Compound 451]	≥ 80

tested on: not given; assay: not given; conditions: not given

Structure (SMILES)	melting point [°C]
O=C(OCCOc1ccc(Cl)cc1)c1ccc2c(c1)B(O)OC2 [Compound 352]	122 to 124
CC(=O)C(C)OC(=O)c1cc2c(cc1Cl)COB2O (centres unmarked) [Compound 451]	102 to 104

tested on: Mycosphaerella graminicola (Septoria tritici); assay: Mycosphaerella graminicola (Septoria tritici) / liquid culture (Septoria blotch); format: cell-based; conditions: Zymoseptoria tritici, PDB potato dextrose broth, 24° C., 4-5 days after application, read-out: disease control (inhibition of growth determined photometrically)
How it was run: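 Growth inhibition was read photometrically 4-5 days after application, following incubation at 24° C of fungal conidia in potato dextrose broth over test compound (200 ppm, from DMSO solution) in microtiter plates.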

Structure (SMILES)	inhibition at 200 ppm [%]
C=CCCOC(=O)c1ccc2c(c1)B(O)OC2 [Compound 329]	≥ 80
O=C(OC1CCC1)c1ccc2c(c1)B(O)OC2 [Compound 332]	≥ 80
O=C(OCc1ccco1)c1ccc2c(c1)B(O)OC2 [Compound 336]	≥ 80
COc1ccc(OCCOC(=O)c2ccc3c(c2)B(O)OC3)cc1 [Compound 344]	≥ 80
O=C(OCCOc1ccc(Cl)cc1)c1ccc2c(c1)B(O)OC2 [Compound 352]	≥ 80
C#CCOC(=O)c1cc2c(cc1F)COB2O [Compound 381]	≥ 80
C[Si](C)(C)C#CCOC(=O)c1cc2c(cc1F)COB2O [Compound 430]	≥ 80
CC(=O)C(C)OC(=O)c1cc2c(cc1Cl)COB2O (centres unmarked) [Compound 451]	≥ 80

tested on: Fusarium culmorum; assay: microbe, parasite or virus in culture; format: cell-based; conditions: read-out: disease control (inhibition of growth determined visually)

Structure (SMILES)	inhibition at 200 ppm [%]
C=CCCOC(=O)c1ccc2c(c1)B(O)OC2 [Compound 329]	≥ 80
O=C(OC1CCC1)c1ccc2c(c1)B(O)OC2 [Compound 332]	≥ 80
O=C(OCc1ccco1)c1ccc2c(c1)B(O)OC2 [Compound 336]	≥ 80
COc1ccc(OCCOC(=O)c2ccc3c(c2)B(O)OC3)cc1 [Compound 344]	≥ 80
C#CCOC(=O)c1cc2c(cc1F)COB2O [Compound 381]	≥ 80
C[Si](C)(C)C#CCOC(=O)c1cc2c(cc1F)COB2O [Compound 430]	≥ 80

tested on: Thanatephorus cucumeris (Rhizoctonia solani); assay: Thanatephorus cucumeris (Rhizoctonia solani) / liquid culture (foot rot, damping-off); format: cell-based; conditions: PDB potato dextrose broth, 24° C., 3-4 days after application, read-out: disease control (inhibition of growth determined photometrically)
How it was run: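 Photometric growth-inhibition readout taken 3-4 days after application, with cultures incubated at 24 °C. Test compound was applied at 200 ppm from DMSO solution to R. solani mycelial fragments in PDB.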

Structure (SMILES)	inhibition at 200 ppm [%]
C=CCCOC(=O)c1ccc2c(c1)B(O)OC2 [Compound 329]	≥ 80
O=C(OC1CCC1)c1ccc2c(c1)B(O)OC2 [Compound 332]	≥ 80
O=C(OCc1ccco1)c1ccc2c(c1)B(O)OC2 [Compound 336]	≥ 80
COc1ccc(OCCOC(=O)c2ccc3c(c2)B(O)OC3)cc1 [Compound 344]	≥ 80
O=C(OCCOc1ccc(Cl)cc1)c1ccc2c(c1)B(O)OC2 [Compound 352]	≥ 80
C#CCOC(=O)c1cc2c(cc1F)COB2O [Compound 381]	≥ 80
C[Si](C)(C)C#CCOC(=O)c1cc2c(cc1F)COB2O [Compound 430]	≥ 80

tested on: Pythium ultimum; assay: Pythium ultimum / liquid culture (seedling damping off); format: cell-based; conditions: Globisporangium ultimum; 200 ppm; potato dextrose broth, 24° C., 2-3 days after application; read-out: disease control (inhibition of growth determined photometrically)

Structure (SMILES)	inhibition at 200 ppm [%]
C=CCCOC(=O)c1ccc2c(c1)B(O)OC2 [Compound 329]	≥ 80
O=C(OC1CCC1)c1ccc2c(c1)B(O)OC2 [Compound 332]	≥ 80
O=C(OCc1ccco1)c1ccc2c(c1)B(O)OC2 [Compound 336]	≥ 80
COc1ccc(OCCOC(=O)c2ccc3c(c2)B(O)OC3)cc1 [Compound 344]	≥ 80
O=C(OCCOc1ccc(Cl)cc1)c1ccc2c(c1)B(O)OC2 [Compound 352]	≥ 80
C#CCOC(=O)c1cc2c(cc1F)COB2O [Compound 381]	≥ 80
C[Si](C)(C)C#CCOC(=O)c1cc2c(cc1F)COB2O [Compound 430]	≥ 80
CC(=O)C(C)OC(=O)c1cc2c(cc1Cl)COB2O (centres unmarked) [Compound 451]	≥ 80

tested on: Gaeumannomyces graminis; assay: Gaeumannomyces graminis / liquid culture (take-all of cereals); format: cell-based; conditions: PDB potato dextrose broth, 24° C., 4-5 days after application, read-out: disease control (inhibition of growth determined photometrically)
How it was run: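 Growth inhibition measured photometrically 4–5 days post-application, following incubation at 24 °C. Test compound, applied from DMSO at 200 ppm, mixed with fungal mycelial fragments in potato dextrose broth.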

Structure (SMILES)	inhibition at 200 ppm [%]
C=CCCOC(=O)c1ccc2c(c1)B(O)OC2 [Compound 329]	≥ 80
O=C(OCc1ccco1)c1ccc2c(c1)B(O)OC2 [Compound 336]	≥ 80
COc1ccc(OCCOC(=O)c2ccc3c(c2)B(O)OC3)cc1 [Compound 344]	≥ 80
O=C(OCCOc1ccc(Cl)cc1)c1ccc2c(c1)B(O)OC2 [Compound 352]	≥ 80
C#CCOC(=O)c1cc2c(cc1F)COB2O [Compound 381]	≥ 80
C[Si](C)(C)C#CCOC(=O)c1cc2c(cc1F)COB2O [Compound 430]	≥ 80
CC(=O)C(C)OC(=O)c1cc2c(cc1Cl)COB2O (centres unmarked) [Compound 451]	≥ 80

tested on: Monographella nivalis (Microdochium nivale); assay: Monographella nivalis (Microdochium nivale) / liquid culture (foot rot cereals); format: cell-based; conditions: PDB potato dextrose broth, 24° C., 4-5 days after application, read-out: disease control (inhibition of growth determined photometrically)

Structure (SMILES)	inhibition at 200 ppm [%]
C=CCCOC(=O)c1ccc2c(c1)B(O)OC2 [Compound 329]	≥ 80
O=C(OC1CCC1)c1ccc2c(c1)B(O)OC2 [Compound 332]	≥ 80
O=C(OCc1ccco1)c1ccc2c(c1)B(O)OC2 [Compound 336]	≥ 80
COc1ccc(OCCOC(=O)c2ccc3c(c2)B(O)OC3)cc1 [Compound 344]	≥ 80
O=C(OCCOc1ccc(Cl)cc1)c1ccc2c(c1)B(O)OC2 [Compound 352]	≥ 80
C#CCOC(=O)c1cc2c(cc1F)COB2O [Compound 381]	≥ 80
CC(=O)C(C)OC(=O)c1cc2c(cc1Cl)COB2O (centres unmarked) [Compound 451]	≥ 80

tested on: Plasmopara viticola; assay: whole plant or invertebrate; format: in vivo; conditions: foliar, read-out: disease control

Structure (SMILES)	pest or weed control at 200 ppm [%]
C=CCCOC(=O)c1ccc2c(c1)B(O)OC2 [Compound 329]	≥ 80
O=C(OC1CCC1)c1ccc2c(c1)B(O)OC2 [Compound 332]	≥ 80
O=C(OCc1ccco1)c1ccc2c(c1)B(O)OC2 [Compound 336]	≥ 80
COc1ccc(OCCOC(=O)c2ccc3c(c2)B(O)OC3)cc1 [Compound 344]	≥ 80
C#CCOC(=O)c1cc2c(cc1F)COB2O [Compound 381]	≥ 80
C[Si](C)(C)C#CCOC(=O)c1cc2c(cc1F)COB2O [Compound 430]	≥ 80
CC(=O)C(C)OC(=O)c1cc2c(cc1Cl)COB2O (centres unmarked) [Compound 451]	≥ 80
